Results: ChEMBL document CHEMBL3132743, “Synthesis of hetero annulated carbazoles: exploration of in vitro cytotoxicity and molecular docking studies” (Medchemcomm, 2013)

How the values were obtained:
HeLa [1] = experiment: Cytotoxicity against human HeLa cells after 48 hrs by MTT assay; assay type: functional, cell-based
MCF7 = experiment: Cytotoxicity against human MCF7 cells after 48 hrs by MTT assay; assay type: functional, cell-based; conditions: MCF7, 48 h
HeLa [2] = experiment: Ratio of ellipticine IC50 to compound IC50 for human HeLa cells; assay type: functional

Compound | IC50 (HeLa [1]) | IC50 (MCF7) | Ratio IC50 (HeLa [2])
CCOc1nc2c(c(-c3cc4c(ccc5ccccc54)nc3Cl)c1C#N)CCc1c-2[nH]c2ccccc12 | 12.3 µM | 46.6 µM | –
CCOc1nc2c(c(-c3cc4c(ccc5ccccc54)nc3Cl)c1C#N)CCc1c-2[nH]c2ccc(C)cc12 | 9.63 µM | 37.4 µM | –
Nc1nc(-c2cc3c(ccc4ccccc43)nc2Cl)c2ccc3c4cc(Cl)ccc4[nH]c3c2n1 | 12.4 µM | 32.6 µM | –
Cc1ccc2[nH]c3c(c2c1)CC/C(=C\c1cc2c(ccc4ccccc42)nc1Cl)C3=O | 35.8 µM | > 100 µM | –
O=C1/C(=C/c2cc3c(ccc4ccccc43)nc2Cl)CCc2c1[nH]c1ccc(Cl)cc21 | 32.5 µM | 75.5 µM | –
CCOc1nc2c(c(-c3cc4c(ccc5ccccc54)nc3Cl)c1C#N)CCc1c-2[nH]c2ccc(Cl)cc12 | 8.11 µM | 34.5 µM | 1.21
Clc1nc2ccc3ccccc3c2cc1-c1onc2c1CCc1c-2[nH]c2ccccc12 | 27.5 µM | 70.5 µM | –
Clc1ccc2[nH]c3c(c2c1)CCc1c-3noc1-c1cc2c(ccc3ccccc32)nc1Cl | 22.3 µM | 55.1 µM | –
O=C1/C(=C/c2cc3c(ccc4ccccc43)nc2Cl)CCc2c1[nH]c1ccccc21 | 42.3 µM | > 100 µM | –
Cc1ccc2[nH]c3c(ccc4c(-c5cc6c(ccc7ccccc76)nc5Cl)nc(N)nc43)c2c1 | 14.8 µM | 39.4 µM | –
Cc1ccc2[nH]c3c(c2c1)CCc1c-3noc1-c1cc2c(ccc3ccccc32)nc1Cl | 26.1 µM | 67.9 µM | –
Cc1c2ccncc2c(C)c2c1[nH]c1ccccc12 [ELLIPTECINE] | 9.81 µM | 16.7 µM | –
Nc1nc(-c2cc3c(ccc4ccccc43)nc2Cl)c2ccc3c4ccccc4[nH]c3c2n1 | 18.6 µM | 42.9 µM | –
